Laboratory results published in publication PMC4485890 (PLoS ONE, 2015).
Like-named read-outs stand apart in the source and are kept apart here.

Experiments:
human NUDT16 (wild-type) [1] = molecular target: T1, human NUDT16 (wild-type) (Homo sapiens, UniProt Q96DE0); test: Determination of kinetic parameters of NUDT16 wild-type (malachite green phosphate release assay); type: biochemical; design: 6-His tag followed by TEV protease site (N, cleaved yes); made in house; host or cells: E. coli Rosetta pLysS; conditions: for k cat/K m, This work / k cat, This work / K m, This work: Michaelis-Menten fit; for k cat, This work / K m, This work: substrate hydrolysis, 37°C; for K m, This work: buffer pH 7.5, 20 mM MgCl2; for Hydrolysis by NUDT16 (qualitative): malachite green assay, sub-μM K m not determinable
T1 sequence (Q96DE0 whole entry): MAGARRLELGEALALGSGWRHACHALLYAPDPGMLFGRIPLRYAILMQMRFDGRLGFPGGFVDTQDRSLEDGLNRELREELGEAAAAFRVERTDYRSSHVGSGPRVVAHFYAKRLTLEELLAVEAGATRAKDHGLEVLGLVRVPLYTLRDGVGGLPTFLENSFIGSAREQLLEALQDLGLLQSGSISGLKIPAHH
Description: To establish an assay to look for product inhibition and to understand the role of the different substituents present on the purine ring, we first wanted to assess the activity of our protein preparations and compare it to the results obtained by Iyama et al. on NUDT16 activity on different nucleotides. Contrary to the results presented in the structural biology part, we used wild-type NUDT16 (no A22V mutation) for these activity studies. Using a malachite green based activity assay for quantification of phosphate release, we determined the kinetic parameters of NUDT16 hydrolysis when incubated in the presence of ITP, XDP and ADP (S3A–S3C Fig), all of which have a suitable K m for assessment with this assay and for inhibition studies (low μM range). The results are summarized and compared in Table 1 with the literature values. […] Our K m values for XDP and ITP are in the same range as data reported in Iyama et al.. Discrepancies between the two studies can be explained by differences in the detection methods (HPLC or malachite green assay), the protein constructs (with or without His-tag) and the buffer conditions. […] However, the k cat for ADP was 15 times higher, leading to a catalytic efficiency in the same range as the one determined for XDP and ITP. Such a correlation between low affinity K m values and low apparent rate constant values is also noticeable when looking more broadly at available data for the purine based substrates.
(§1) Each sample point was obtained in the presence of 1 μM of NUDT16 (0.1 μM when assayed for activity against ITP) and various concentrations of substrates in buffer C (50 mM Tris-HCl pH 7.5, 150 mM NaCl, 20 mM MgCl2, 0.005% Tween-20, and 0.5 mM TCEP). When ITP was used as a substrate, 0.1 unit of yeast inorganic pyrophosphatase (Sigma-Aldrich) was added to the well. The activity assay was performed in 100 μl in a 96-well plate at 37°C and was stopped by addition of 25 μl of Malachite Green Working Solution (prepared as described in [42]). Plate was kept under shaking at room-temperature for 15 min, then 100 μl were transferred into a 384-well plate and the measurement of the absorbance at 630nm was carried out either on a CLARIOstar (BMG LABTECH) or a Victor^3 (PerkinElmer) reader.
(§2) The amount of free phosphate produced during the hydrolysis was estimated by comparison with a standard curve.
(§3) Experiments were performed in triplicate and data analysis was done on GraphPad Prism version 5.01 for Windows (GraphPad Software, San Diego California USA, www.graphpad.com).
(§4) For each assayed substrate, starting substrate concentrations (varying from 0.5 to 240 μM) and incubation times (from 20 to 240 min) were selected in order for the quasi-steady-state assumption to remain valid.

human NUDT16 (wild-type) [2] = molecular target: T1, human NUDT16 (wild-type); test: Binding of products to NUDT16 by isothermal titration calorimetry
Description: NUDT16 was dialyzed against 20 mM Hepes pH 7.5, 300 mM NaCl, 20 mM MgCl2, 10% glycerol, and 0.5 mM TCEP in a Slide-a-Lyzer cassette (7kDa cut-off). […] The buffer compositions in the cell and the syringe were carefully matched such that the sole difference between them was either the protein or the nucleotide content.
Titrations were performed at 25°C using 32 injections of 1.2μl of nucleotide solutions (following a 1μl pre-injection) spaced by 120 sec into the 200 μl experimental cell on a iTC200 MicroCal instrument (GE Healthcare) at the Karolinska Institutet/SciLifeLab Protein Science Core Facility (http://psf.ki.se).
Binding isotherm and thermodynamic constants were determined through fitting experimental data against a one-site binding-model (number of sites, ΔH and K a being unconstrained during refinement) on Origin software v7.0552 (OriginLab).

NUDT16 = conditions: cited from earlier work; for K m, Ref. 14 / k cat, Ref. 14 / k cat/K m, Ref. 14: literature values, ref 14 (Iyama et al)
NUDT16 A22V = molecular target: T2, NUDT16 A22V (Homo sapiens, UniProt Q96DE0, A22V); test: Determination of kinetic parameters of NUDT16 A22V (malachite green assay); type: biochemical; conditions: A22V mutant, Michaelis-Menten fit
T2 construct: 6-His tag followed by TEV protease site (N, cleaved yes); made in house; host or cells: E. coli Rosetta
T2 sequence (Q96DE0 whole entry A22V): as the sequence (Q96DE0 whole entry) above, with A22V counted along it
Description: It is worth noting that the protein construct used to obtain the two NUDT16 crystal structures harbors an A22V mutation (see Material and Methods section). […] This was confirmed by comparing the kinetic parameters of NUDT16 wild-type with those obtained with the A22V mutation (S1 Table) when NUDT16 was assayed against XDP and ITP. […] Detailed schemes of all interactions between protein, nucleotide and metals are shown on Fig 3C–3E.
as §1, §2, §3, §4
The procedure was identical whether NUDT16 wild-type or A22V was used in the assay.

[3] = ITC, 25°C, one binding-site model

Row | Compound | k cat/K m, This work (human NUDT16 (wild-type) [1]; NUDT16 wild-type) | k cat, This work (human NUDT16 (wild-type) [1]; NUDT16 wild-type) [s⁻¹] | K m, This work (human NUDT16 (wild-type) [1]; NUDT16 wild-type) [µM] | K m, Ref. 14 (NUDT16) [µM] | k cat, Ref. 14 (NUDT16) [s⁻¹] | k cat/K m, Ref. 14 (NUDT16) | also measured
1 | Nc1ncnc2c1ncn2[C@@H]1O[C@H](COP(=O)(O)OP(=O)(O)O)[C@@H](O)[C@H]1O [ADP] | 0.52 ± 0.10 10^3 s^-1M^-1 | 0.0959 ± 0.00897 | 185 ± 32 |  |  |  | K m for ADP relative to XDP (times higher) (human NUDT16 (wild-type) [1]; NUDT16 wild-type): about 30 times; k cat for ADP relative to XDP (times higher) (human NUDT16 (wild-type) [1]; NUDT16 wild-type): 15 times
2 | Nc1ncnc2c1ncn2[C@@H]1O[C@H](COP(=O)(O)O)[C@@H](O)[C@H]1O [AMP] |  |  |  |  |  |  | Kd (human NUDT16 (wild-type) [2]; ITC, 25°C, one binding-site model, 20 mM MgCl2, pH 7.5): too low for establishing good binding constants
3 | Nc1nc2c(ncn2[C@@H]2O[C@H](COP(=O)(O)OP(=O)(O)O)[C@@H](O)[C@H]2O)c(=O)[nH]1 [GDP] |  |  |  | 0.33 | 0.00863 | 26.1 10^3 s^-1M^-1 | Hydrolysis by NUDT16 (qualitative) (human NUDT16 (wild-type) [1]): process efficiently
4 | Nc1nc(=O)c2ncn([C@@H]3O[C@H](COP(=O)(O)O)[C@@H](O)[C@H]3O)c2[nH]1 [GMP] |  |  |  |  |  |  | Kd (human NUDT16 (wild-type) [2]): 34.25 ± 0.05 µM; N sites (human NUDT16 (wild-type) [2]; [3]): 1.080 ± 0.015
5 | O=P(O)(O)OP(=O)(O)OC[C@H]1O[C@@H](n2cnc3c(O)ncnc32)[C@H](O)[C@@H]1O [IDP, inosine diphosphate] |  |  |  | 0.066 | 0.0155 | 251 10^3 s^-1M^-1 | Hydrolysis by NUDT16 (qualitative) (human NUDT16 (wild-type) [1]): process efficiently; K m for IDP relative to ITP (times lower) (NUDT16; ref 14 (Iyama et al.)): 350 times
6 | O=c1[nH]cnc2c1ncn2[C@@H]1O[C@H](COP(=O)(O)OP(=O)(O)OP(=O)(O)O)[C@@H](O)[C@H]1O [ITP] | 1.55 ± 0.20 10^3 s^-1M^-1 | 0.0127 ± 0.0005 | 8.23 ± 1.01 | 22.1 | 0.051 | 2.31 10^3 s^-1M^-1 | Km (NUDT16 A22V): 12.8 ± 1.46 µM; kcat, NUDT16 A22V (NUDT16 A22V): 0.00657 ± 0.000217 s⁻¹
7 | O=c1[nH]c(=O)c2ncn([C@@H]3O[C@H](COP(=O)(O)OP(=O)(O)O)[C@@H](O)[C@H]3O)c2[nH]1 [XDP] | 0.99 ± 0.23 10^3 s^-1M^-1 | 0.00613 ± 0.0013 | 6.22 ± 0.55 | 15.7 | 0.0433 | 2.76 10^3 s^-1M^-1 | Km (NUDT16 A22V): 9.7 ± 1.25 µM; kcat, NUDT16 A22V (NUDT16 A22V): 0.00515 ± 0.0002 s⁻¹
8 | O=c1[nH]c(=O)c2ncn([C@@H]3O[C@H](COP(=O)(O)O)[C@@H](O)[C@H]3O)c2[nH]1 [XMP] |  |  |  |  |  |  | Kd (human NUDT16 (wild-type) [2]): 39.06 ± 0.07 µM; N sites (human NUDT16 (wild-type) [2]; [3]): 0.821 ± 0.024
